Laboratory results published in patent US9981959B2, “Thiazolyl and oxazolyl urea, thiourea, guanidine and cyanoguanidine compounds as TrkA kinase inhibitors” (Array BioPharma Inc., priority 2012, dated 2018).

How the values were obtained:
Assay in all cases: KinaseProfiler off-target kinase profiling
Type in all cases: biochemical
Conditions in all cases: 10 μM, ATP near Km
AKT1 = molecular target: T1, AKT1 (Homo sapiens, UniProt P31749)
T1 construct: purchased Millipore (KinaseProfiler service)
In short: (§1)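 ATP near Km for each enzyme; compound 10 μM; n = 2. Data given as POC (average of replicates).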

ALK = molecular target: T2, ALK (Homo sapiens, UniProt Q9UM73)
T2 construct: purchased Millipore (KinaseProfiler service)
In short: as §1

ARK5 = molecular target: T3, ARK5 (Homo sapiens, UniProt O60285)
T3 construct: purchased Millipore (KinaseProfiler service)
In short: as §1

CAMK2b = molecular target: T4, CAMK2b (Homo sapiens, UniProt Q13554)
T4 construct: purchased Millipore (KinaseProfiler service)
T4 sequence (Q13554 whole entry): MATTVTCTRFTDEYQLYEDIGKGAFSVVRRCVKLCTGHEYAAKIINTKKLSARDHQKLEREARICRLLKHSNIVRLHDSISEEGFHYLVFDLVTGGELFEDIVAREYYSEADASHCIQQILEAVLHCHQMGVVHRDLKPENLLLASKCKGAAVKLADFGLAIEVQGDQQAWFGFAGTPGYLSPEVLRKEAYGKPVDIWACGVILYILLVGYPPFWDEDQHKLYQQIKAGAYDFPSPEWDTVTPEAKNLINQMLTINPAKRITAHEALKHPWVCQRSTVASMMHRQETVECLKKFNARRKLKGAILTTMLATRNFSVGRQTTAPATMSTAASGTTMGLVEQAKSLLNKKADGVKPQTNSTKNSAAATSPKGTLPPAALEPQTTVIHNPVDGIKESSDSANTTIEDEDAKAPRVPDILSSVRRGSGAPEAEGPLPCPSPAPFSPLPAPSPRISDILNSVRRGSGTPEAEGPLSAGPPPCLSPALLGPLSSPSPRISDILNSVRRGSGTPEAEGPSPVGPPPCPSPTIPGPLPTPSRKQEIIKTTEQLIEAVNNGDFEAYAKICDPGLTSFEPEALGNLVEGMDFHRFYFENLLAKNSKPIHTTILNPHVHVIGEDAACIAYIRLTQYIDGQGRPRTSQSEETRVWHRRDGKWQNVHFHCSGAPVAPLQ
In short: as §1

CAMK2g = molecular target: T5, CAMK2g (Homo sapiens, UniProt Q13555)
T5 construct: purchased Millipore (KinaseProfiler service)
In short: as §1

CDK2/cyclinA = molecular target: T6, CDK2/cyclinA (Homo sapiens, UniProt P24941)
T6 construct: purchased Millipore (KinaseProfiler service)
In short: as §1

CDK7/cyclinH/MAT1 = molecular target: T7, CDK7/cyclinH/MAT1 (Homo sapiens, UniProt P50613)
T7 construct: purchased Millipore, Inc. (KinaseProfiler service)
T7 sequence (P50613 whole entry): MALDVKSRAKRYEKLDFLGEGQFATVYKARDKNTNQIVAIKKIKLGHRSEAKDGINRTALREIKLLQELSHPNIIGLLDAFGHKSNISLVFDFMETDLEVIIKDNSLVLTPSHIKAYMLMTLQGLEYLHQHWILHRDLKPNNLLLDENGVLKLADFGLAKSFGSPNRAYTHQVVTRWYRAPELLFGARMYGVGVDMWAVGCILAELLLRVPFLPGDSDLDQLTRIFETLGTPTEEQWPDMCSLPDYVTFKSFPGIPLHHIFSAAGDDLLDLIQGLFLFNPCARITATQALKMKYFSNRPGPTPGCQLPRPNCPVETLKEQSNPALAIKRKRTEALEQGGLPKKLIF
T7 sequence (P51946 whole entry partner): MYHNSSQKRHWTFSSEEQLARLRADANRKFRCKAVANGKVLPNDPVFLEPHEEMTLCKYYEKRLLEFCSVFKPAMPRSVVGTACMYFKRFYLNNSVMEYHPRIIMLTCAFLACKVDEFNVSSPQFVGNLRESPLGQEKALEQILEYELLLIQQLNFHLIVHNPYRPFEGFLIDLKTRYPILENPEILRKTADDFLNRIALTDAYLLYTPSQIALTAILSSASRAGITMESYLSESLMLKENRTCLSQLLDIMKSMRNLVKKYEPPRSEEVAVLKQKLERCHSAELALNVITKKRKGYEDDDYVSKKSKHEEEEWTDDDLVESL
T7 sequence (P51948 whole entry partner): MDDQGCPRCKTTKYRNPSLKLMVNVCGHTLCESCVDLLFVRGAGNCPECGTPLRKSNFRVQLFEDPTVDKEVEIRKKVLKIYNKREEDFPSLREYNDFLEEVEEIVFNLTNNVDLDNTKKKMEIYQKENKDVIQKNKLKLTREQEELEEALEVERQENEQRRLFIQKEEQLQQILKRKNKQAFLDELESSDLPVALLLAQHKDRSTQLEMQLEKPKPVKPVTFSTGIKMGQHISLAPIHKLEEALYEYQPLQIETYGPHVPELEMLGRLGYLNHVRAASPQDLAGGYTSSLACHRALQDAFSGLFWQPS
In short: as §1

CHK2 = molecular target: T8, CHK2 (Homo sapiens, UniProt O96017)
T8 construct: purchased Millipore, Inc. (KinaseProfiler service)
In short: as §1

CK1_y = test system: CK1_y
In short: as §1

CK1gamma2 = molecular target: T9, CK1gamma2 (Homo sapiens, UniProt P78368)
T9 construct: purchased Millipore, Inc. (KinaseProfiler service)
In short: as §1

DAPK2 = molecular target: T10, DAPK2 (Homo sapiens, UniProt Q9UIK4)
T10 construct: purchased Millipore, Inc. (KinaseProfiler service)
In short: as §1

DDR2 = molecular target: T11, DDR2 (Homo sapiens, UniProt Q16832)
T11 construct: purchased Millipore, Inc. (KinaseProfiler service)
T11 sequence (Q16832 22-855): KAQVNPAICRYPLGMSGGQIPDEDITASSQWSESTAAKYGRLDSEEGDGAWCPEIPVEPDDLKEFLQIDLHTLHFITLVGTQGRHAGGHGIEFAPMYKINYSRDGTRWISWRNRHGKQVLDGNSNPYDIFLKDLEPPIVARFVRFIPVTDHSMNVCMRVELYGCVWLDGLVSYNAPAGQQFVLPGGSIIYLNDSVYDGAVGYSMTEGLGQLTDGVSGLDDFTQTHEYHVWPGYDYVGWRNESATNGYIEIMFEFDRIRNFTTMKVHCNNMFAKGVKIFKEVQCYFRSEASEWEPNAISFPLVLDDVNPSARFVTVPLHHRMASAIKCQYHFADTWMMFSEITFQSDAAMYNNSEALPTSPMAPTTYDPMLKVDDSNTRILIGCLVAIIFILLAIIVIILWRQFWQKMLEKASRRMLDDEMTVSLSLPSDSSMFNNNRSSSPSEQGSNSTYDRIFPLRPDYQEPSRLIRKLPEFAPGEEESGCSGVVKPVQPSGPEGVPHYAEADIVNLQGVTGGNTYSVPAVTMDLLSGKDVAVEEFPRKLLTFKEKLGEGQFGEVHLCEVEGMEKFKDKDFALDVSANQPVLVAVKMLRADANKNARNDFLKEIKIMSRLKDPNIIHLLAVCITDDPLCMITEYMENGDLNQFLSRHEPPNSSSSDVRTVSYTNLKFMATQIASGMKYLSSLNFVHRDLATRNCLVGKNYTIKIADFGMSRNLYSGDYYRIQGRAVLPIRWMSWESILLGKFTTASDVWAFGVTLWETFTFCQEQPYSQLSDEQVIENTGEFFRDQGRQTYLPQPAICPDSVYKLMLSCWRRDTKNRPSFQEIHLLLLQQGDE
In short: as §1

EGFR = molecular target: T12, EGFR (Homo sapiens, UniProt P00533)
T12 construct: purchased Millipore, Inc. (KinaseProfiler service)
In short: as §1

EphA8 = molecular target: T13, EphA8 (Homo sapiens, UniProt P29322)
T13 construct: purchased Millipore, Inc. (KinaseProfiler service)
In short: as §1

EphB2 = molecular target: T14, EphB2 (Homo sapiens, UniProt P29323)
T14 construct: purchased Millipore, Inc. (KinaseProfiler service)
In short: as §1

Fyn = molecular target: T15, Fyn (Homo sapiens, UniProt P06241)
T15 construct: purchased Millipore, Inc. (KinaseProfiler service)
In short: as §1

HIPK2 = molecular target: T16, HIPK2 (Homo sapiens, UniProt Q9H2X6)
T16 construct: purchased Millipore, Inc. (KinaseProfiler service)
In short: as §1

HIPK3 = molecular target: T17, HIPK3 (Homo sapiens, UniProt Q9H422)
T17 construct: purchased Millipore, Inc. (KinaseProfiler service)
In short: as §1

IR = molecular target: T18, IR (Homo sapiens, UniProt P06213)
T18 construct: purchased Millipore, Inc. (KinaseProfiler service)
In short: as §1

JNK2alpha2 = molecular target: T19, JNK2alpha2 (Homo sapiens, UniProt P45984)
T19 construct: purchased Millipore, Inc. (KinaseProfiler service)
In short: as §1

MARK1 = molecular target: T20, MARK1 (Homo sapiens, UniProt Q9P0L2)
T20 construct: purchased Millipore, Inc. (KinaseProfiler service)
In short: as §1

MARK2 = molecular target: T21, MARK2 (Homo sapiens, UniProt Q7KZI7)
T21 construct: purchased Millipore, Inc. (KinaseProfiler service)
In short: as §1

MRCKalpha = molecular target: T22, MRCKalpha (Homo sapiens, UniProt Q5VT25)
T22 construct: purchased Millipore, Inc. (KinaseProfiler service)
T22 sequence (Q5VT25 whole entry): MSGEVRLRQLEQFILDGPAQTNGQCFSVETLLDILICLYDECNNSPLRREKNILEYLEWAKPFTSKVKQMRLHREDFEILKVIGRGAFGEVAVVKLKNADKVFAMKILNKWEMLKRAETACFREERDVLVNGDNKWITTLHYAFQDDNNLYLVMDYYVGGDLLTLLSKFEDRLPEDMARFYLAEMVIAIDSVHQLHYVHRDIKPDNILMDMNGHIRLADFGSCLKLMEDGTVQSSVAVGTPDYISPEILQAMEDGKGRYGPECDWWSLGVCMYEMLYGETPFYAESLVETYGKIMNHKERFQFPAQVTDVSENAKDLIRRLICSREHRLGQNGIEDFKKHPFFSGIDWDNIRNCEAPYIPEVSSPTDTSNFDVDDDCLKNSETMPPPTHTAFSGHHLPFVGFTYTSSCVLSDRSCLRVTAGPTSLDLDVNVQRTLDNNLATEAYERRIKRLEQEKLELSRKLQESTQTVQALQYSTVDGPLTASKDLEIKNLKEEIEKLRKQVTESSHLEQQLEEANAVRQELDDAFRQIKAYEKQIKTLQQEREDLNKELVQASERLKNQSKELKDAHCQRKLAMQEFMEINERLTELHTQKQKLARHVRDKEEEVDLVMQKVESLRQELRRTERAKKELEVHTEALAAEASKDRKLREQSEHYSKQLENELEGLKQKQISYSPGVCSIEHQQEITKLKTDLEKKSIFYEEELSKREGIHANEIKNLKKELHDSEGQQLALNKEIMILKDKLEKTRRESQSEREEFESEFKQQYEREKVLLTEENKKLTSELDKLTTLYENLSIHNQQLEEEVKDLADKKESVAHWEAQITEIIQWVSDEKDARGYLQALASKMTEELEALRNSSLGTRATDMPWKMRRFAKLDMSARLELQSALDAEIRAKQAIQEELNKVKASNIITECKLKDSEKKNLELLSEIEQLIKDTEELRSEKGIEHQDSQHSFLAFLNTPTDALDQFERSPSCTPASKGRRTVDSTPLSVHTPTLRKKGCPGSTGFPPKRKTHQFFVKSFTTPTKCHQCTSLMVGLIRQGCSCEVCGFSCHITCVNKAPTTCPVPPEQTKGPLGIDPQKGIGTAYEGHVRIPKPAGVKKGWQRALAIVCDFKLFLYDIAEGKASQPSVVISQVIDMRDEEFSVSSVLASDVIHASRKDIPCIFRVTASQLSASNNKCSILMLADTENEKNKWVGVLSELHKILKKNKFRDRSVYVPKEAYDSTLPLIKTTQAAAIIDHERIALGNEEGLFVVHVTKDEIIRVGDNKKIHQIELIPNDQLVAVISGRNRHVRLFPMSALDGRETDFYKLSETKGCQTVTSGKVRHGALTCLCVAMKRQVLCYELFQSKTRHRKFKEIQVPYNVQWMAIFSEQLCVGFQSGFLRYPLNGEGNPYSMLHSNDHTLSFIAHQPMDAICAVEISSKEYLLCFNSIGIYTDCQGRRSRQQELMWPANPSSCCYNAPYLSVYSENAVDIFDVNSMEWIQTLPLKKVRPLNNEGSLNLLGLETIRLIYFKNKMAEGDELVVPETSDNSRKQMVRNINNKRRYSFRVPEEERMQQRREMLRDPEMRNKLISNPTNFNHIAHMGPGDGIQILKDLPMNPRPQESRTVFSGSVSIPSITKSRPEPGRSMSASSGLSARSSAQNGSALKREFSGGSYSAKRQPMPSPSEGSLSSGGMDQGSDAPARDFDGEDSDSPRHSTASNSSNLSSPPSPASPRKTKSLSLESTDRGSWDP
In short: as §1

NEK11 = molecular target: T23, NEK11 (Homo sapiens, UniProt Q8NG66)
T23 construct: purchased Millipore, Inc. (KinaseProfiler service)
T23 sequence (Q8NG66 whole entry): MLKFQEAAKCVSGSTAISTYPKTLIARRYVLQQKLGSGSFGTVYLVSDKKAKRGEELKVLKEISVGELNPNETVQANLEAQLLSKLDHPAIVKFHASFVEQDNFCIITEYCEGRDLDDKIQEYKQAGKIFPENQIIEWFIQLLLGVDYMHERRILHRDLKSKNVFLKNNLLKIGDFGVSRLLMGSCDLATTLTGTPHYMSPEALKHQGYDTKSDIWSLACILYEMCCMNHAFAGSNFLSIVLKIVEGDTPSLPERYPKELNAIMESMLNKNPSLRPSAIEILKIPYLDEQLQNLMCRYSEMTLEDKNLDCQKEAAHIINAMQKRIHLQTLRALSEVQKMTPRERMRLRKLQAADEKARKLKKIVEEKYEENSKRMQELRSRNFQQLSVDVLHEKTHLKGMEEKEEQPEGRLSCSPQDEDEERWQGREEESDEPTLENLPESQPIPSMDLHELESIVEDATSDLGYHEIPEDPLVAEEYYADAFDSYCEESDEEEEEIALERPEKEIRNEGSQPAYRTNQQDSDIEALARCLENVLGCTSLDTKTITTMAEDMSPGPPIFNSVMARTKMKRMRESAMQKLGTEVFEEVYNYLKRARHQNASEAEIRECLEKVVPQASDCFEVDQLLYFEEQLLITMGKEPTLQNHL
In short: as §1

NLK = molecular target: T24, NLK (Homo sapiens, UniProt Q9UBE8)
T24 construct: purchased Millipore, Inc. (KinaseProfiler service)
In short: as §1

PKAC-alpha = molecular target: T25, PKAC-alpha (Homo sapiens, UniProt P17612)
T25 construct: purchased Millipore, Inc. (KinaseProfiler service)
In short: as §1

PKCbetaI = molecular target: T26, PKCbetaI (Homo sapiens, UniProt P05771)
T26 construct: purchased Millipore, Inc. (KinaseProfiler service)
In short: as §1

PKCzeta = molecular target: T27, PKCzeta (Homo sapiens, UniProt Q05513)
T27 construct: purchased Millipore, Inc. (KinaseProfiler service)
In short: as §1

PRKG1alpha = molecular target: T28, PRKG1alpha (Homo sapiens, UniProt Q13976)
T28 construct: purchased Millipore, Inc. (KinaseProfiler service)
In short: as §1

PTK5 = molecular target: T29, PTK5 (Homo sapiens, UniProt P42685)
T29 construct: purchased Millipore, Inc. (KinaseProfiler service)
In short: as §1

Pim-3 = molecular target: T30, Pim-3 (Homo sapiens, UniProt Q86V86)
T30 construct: purchased Millipore, Inc. (KinaseProfiler service)
In short: as §1

SGK2 = molecular target: T31, SGK2 (Homo sapiens, UniProt Q9HBY8)
T31 construct: purchased Millipore, Inc. (KinaseProfiler service)
In short: as §1

SRPK1 = molecular target: T32, SRPK1 (Homo sapiens, UniProt Q96SB4)
T32 construct: purchased Millipore, Inc. (KinaseProfiler service)
In short: as §1

TEC Activated = molecular target: T33, TEC Activated (Homo sapiens, UniProt P42680)
T33 construct: purchased Millipore, Inc. (KinaseProfiler service)
In short: as §1

ULK3 = molecular target: T34, ULK3 (Homo sapiens, UniProt Q6PHR2)
T34 construct: purchased Millipore, Inc. (KinaseProfiler service)
In short: as §1

VRK2 = molecular target: T35, VRK2 (Homo sapiens, UniProt Q86Y07)
T35 construct: purchased Millipore, Inc. (KinaseProfiler service)
In short: as §1

Avg POC (AKT1): 133 POC
Avg POC (ALK): 108 POC
Avg POC (ARK5): 102 POC
Avg POC (CAMK2b): 102 POC
Avg POC (CAMK2g): 103 POC
Avg POC (CDK2/cyclinA): 122 POC
Avg POC (CDK7/cyclinH/MAT1): 113 POC
Avg POC (CHK2): 133 POC
Avg POC (CK1_y): 103 POC
Avg POC (CK1gamma2): 110 POC
Avg POC (DAPK2): 103.5 POC
Avg POC (DDR2): 98 POC
Avg POC (EGFR): 111 POC
Avg POC (EphA8): 118.5 POC
Avg POC (EphB2): 119 POC
Avg POC (Fyn): 105.5 POC
Avg POC (HIPK2): 98.5 POC
Avg POC (HIPK3): 105.5 POC
Avg POC (IR): 99 POC
Avg POC (JNK2alpha2): 97.5 POC
Avg POC (MARK1): 107 POC
Avg POC (MARK2): 100.5 POC
Avg POC (MRCKalpha): 147.5 POC
Avg POC (NEK11): 73.5 POC
Avg POC (NLK): 125.5 POC
Avg POC (PKAC-alpha): 134 POC
Avg POC (PKCbetaI): 102 POC
Avg POC (PKCzeta): 108 POC
Avg POC (PRKG1alpha): 118 POC
Avg POC (PTK5): 104.5 POC
Avg POC (Pim-3): 107.5 POC
Avg POC (SGK2): 144.5 POC
Avg POC (SRPK1): 114 POC
Avg POC (TEC Activated): 131 POC
Avg POC (ULK3): 90 POC
Avg POC (VRK2): 91.5 POC
SMILES: Cc1c(-c2cnn(C)c2)nn(-c2ccccc2)c1NC(=O)Nc1sc(C(F)(F)F)nc1-c1ccccc1 [Example 2, 1-(1′,4-dimethyl-1-phenyl-1H,1′H-[3,4′-bipyrazol]-5-yl)-3-(4-phenyl-2-(trifluoromethyl)thiazol-5-yl)urea]
